Patent US7829568B2, “Substituted 5,6,7,8-tetrahydroimidazo[1,2-a]pyridin-2-ylamine compounds and their use for producing drugs” (Gruenenthal GmbH, priority 2005, dated 2010)

Test system: batrachotoxin (BTX) binding site of the sodium channel
Experiment: Affinity to the batrachotoxin (BTX) binding site of the sodium channel
Design: species or system rat
Settings: [3H]-batrachotoxinin A20 α-benzoate 10 nM; synaptosomes from rat cerebral cortex; test concentration not given

SMILES	BTX inhibition (rat) (% inhibition)
CCCCN(C(=O)c1ccc(F)c(F)c1)c1nc2n(c1C(=O)NCC1COc3ccccc3O1)CCCC2 (stereo not shown) [Example 96, 2-[butyl-(3,4-difluoro-benzoyl)-amino]-5,6,7,8-tetrahydro-imidazo[1,2-a]pyridine-3-carboxylic acid (2,3-dihydro-benzo[1,4]dioxin-2-ylmethyl)-amide]	33%
CCCCN(C(=O)c1cccc(Cl)c1)c1nc2n(c1C(=O)Nc1ccc(NC(=O)OC(C)(C)C)cc1)CCCC2 [Example 189, [4-({2-[butyl-(3-chloro-benzoyl)-amino]-5,6,7,8-tetrahydro-imidazo[1,2-a]pyridine-3-carbonyl}-amino)-phenyl]-carbamic acid tert-butyl ester]	93%
CCCCN(C(=O)c1ccc(F)c(F)c1)c1nc2n(c1C(=O)NCCCc1ccccc1)CCCC2 [Example 28, 2-[butyl-(3,4-difluoro-benzoyl)-amino]-5,6,7,8-tetrahydro-imidazo[1,2-a]pyridine-3-carboxylic acid (3-phenyl-propyl)-amide]	42%
CCCCN(C(=O)c1cccc(Cl)c1)c1nc2n(c1C(=O)NCCN1CCCC1)CCCC2 [Example 58, 2-[butyl-(3-chloro-benzoyl)-amino]-5,6,7,8-tetrahydro-imidazo[1,2-a]pyridine-3-carboxylic acid (2-pyrrolidin-1-yl-ethyl)-amide]	50%
CCCCN(C(=O)c1cccc(Cl)c1)c1nc2n(c1C(=O)NCCc1ccc(Oc3ccccc3)cc1)CCCC2 [Example 134, 2-[butyl-(3-chloro-benzoyl)-amino]-5,6,7,8-tetrahydro-imidazo[1,2-a]pyridine-3-carboxylic acid [2-(4-phenoxy-phenyl)-ethyl]-amide]	93%
CCCCN(C(=O)c1ccc(F)c(F)c1)c1nc2n(c1C(=O)NCCC(C)(C)C)CCCC2 [Example 171, 2-[butyl-(3,4-difluoro-benzoyl)-amino]-5,6,7,8-tetrahydro-imidazo[1,2-a]pyridine-3-carboxylic acid (3,3-dimethyl-butyl)-amide]	47%
CCc1ccc(NC(=O)c2c(N(C)C(=O)c3cccc(Cl)c3)nc3n2CCCC3)cc1 [Example 31, 2-[(3-chloro-benzoyl)-methyl-amino]-5,6,7,8-tetrahydro-imidazo[1,2-a]pyridine-3-carboxylic acid (4-ethyl-phenyl)-amide]	70%
CC(NC(=O)c1c(N(C)C(=O)c2cccc(Cl)c2)nc2n1CCCC2)C12CC3CC(CC(C3)C1)C2 (stereo not shown) [Example 165, 2-[(3-chloro-benzoyl)-methyl-amino]-5,6,7,8-tetrahydro-imidazo[1,2-a]pyridine-3-carboxylic acid (1-adamantan-1-yl-ethyl)-amide]	39%
CCCCN(C(=O)c1cccc(Cl)c1)c1nc2n(c1C(=O)NCCSCc1c(Cl)cccc1Cl)CCCC2 [Example 95, 2-[butyl-(3-chloro-benzoyl)-amino]-5,6,7,8-tetrahydro-imidazo[1,2-a]pyridine-3-carboxylic acid [2-(2,6-dichlor-benzylsulphanyl)-ethyl]-amide]	68%
CCc1ccccc1N1CCN(C(=O)c2c(N(C)C(=O)c3cccc4ccccc34)nc3n2CCCC3)CC1 [Example 136, naphthalene-1-carboxylic acid {3-[4-(2-ethyl-phenyl)-piperazine-1-carbonyl]-5,6,7,8-tetrahydro-imidazo[1,2-a]pyridin-2-yl}-methyl-amide]	54%
CN(C(=O)c1ccccc1)c1nc2n(c1C(=O)NC(c1ccccc1)c1ccc(Cl)cc1)CCCC2 (stereo not shown) [Example 166, 2-(benzoyl-methyl-amino)-5,6,7,8-tetrahydro-imidazo[1,2-a]pyridine-3-carboxylic acid [(4-chloro-phenyl)-phenyl-methyl]-amide]	72%
CN(C(=O)c1cccc2ccccc12)c1nc2n(c1C(=O)NCC(c1ccccc1)c1ccccc1)CCCC2 [Example 46, 2-[methyl-(naphthalene-1-carbonyl)-amino]-5,6,7,8-tetrahydro-imidazo[1,2-a]pyridine-3-carboxylic acid (2,2-diphenyl-ethyl)-amide]	67%
CCCCN(C(=O)c1ccc(F)c(F)c1)c1nc2n(c1C(=O)N1CCN(Cc3ccc4c(c3)OCO4)CC1)CCCC2 [Example 137, N-[3-(4-benzo[1,3]dioxol-5-ylmethyl-piperazine-1-carbonyl)-5,6,7,8-tetrahydro-imidazo[1,2-a]pyridin-2-yl]-N-butyl-3,4-difluor-benzamide]	72%
